Experimental data reported in article PMC8006202, “Influence of YES1 Kinase and Tyrosine Phosphorylation on the Activity of OCT1” (Frontiers in Pharmacology, 2021).
Read-outs that look alike come from different tables or passages of the source.

Legend:
OCT3 = target: T1, OCT3 (Homo sapiens, UniProt O75751); assay: OCT3 transport inhibition by TKIs (Supplementary Figure S2); format: cell-based
T1 sequence (O75751 1-556): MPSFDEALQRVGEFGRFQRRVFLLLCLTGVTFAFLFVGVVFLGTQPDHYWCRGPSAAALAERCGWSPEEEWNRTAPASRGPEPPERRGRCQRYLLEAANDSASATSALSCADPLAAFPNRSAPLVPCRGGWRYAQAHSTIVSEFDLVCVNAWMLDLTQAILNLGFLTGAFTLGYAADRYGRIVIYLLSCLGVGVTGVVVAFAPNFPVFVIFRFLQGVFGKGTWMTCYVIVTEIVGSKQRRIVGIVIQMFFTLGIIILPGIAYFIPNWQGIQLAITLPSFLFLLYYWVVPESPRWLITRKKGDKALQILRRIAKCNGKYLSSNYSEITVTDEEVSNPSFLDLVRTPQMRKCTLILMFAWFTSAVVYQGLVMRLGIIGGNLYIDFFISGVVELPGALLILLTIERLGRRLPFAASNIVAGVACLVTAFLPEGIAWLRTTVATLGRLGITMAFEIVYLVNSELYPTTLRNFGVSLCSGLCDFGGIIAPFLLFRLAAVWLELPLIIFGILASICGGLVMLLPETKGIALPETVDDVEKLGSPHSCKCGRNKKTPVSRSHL
Experimental: (§1) Uptake assays were performed with radiolabeled TEA (2 µM) or metformin (5 µM) as described previously ([Sprowl et al., 2013]; [Pabla et al., 2015]) in the presence or absence of TKIs. The results were normalized to uptake values in cells stably transfected with an empty vector treated with vehicle alone (Supplementary Figure S1). Prior to cellular accumulation experiments, cells were grown to 90% confluence on poly-lysine coated multi-well plates. For uptake studies, cells were rinsed with warm PBS and incubated in the presence of a vehicle or inhibitor, prepared in serum and phenol red-free DMEM media for 15 min. Subsequently, media was removed followed by the addition of radiolabeled TEA and metformin along with inhibitor, and cellular uptake was measured after a 15-min co-incubation period. Total radioactivity originating from TEA and metformin was determined using liquid scintillation counting after lysing the cells with 1 N NaOH, a neutralizing step with 2 M HCl. A Pierce protein assay (Thermo Fisher Scientific, Waltham, MA) was used to normalize radioactivity readings to account for variation in cell number between samples.

hepatic OCT1 [1] = target: T2, hepatic OCT1 (Mus musculus, UniProt O08966); assay: Plasma isobutyryl L-carnitine (IBC) after a single oral dose of dasatinib in mice; format: in vivo; set-up: from tissue; host or cells: liver of wild-type mice, in vivo; settings: single oral dose 15 mg/kg
T2 sequence (O08966 1-556): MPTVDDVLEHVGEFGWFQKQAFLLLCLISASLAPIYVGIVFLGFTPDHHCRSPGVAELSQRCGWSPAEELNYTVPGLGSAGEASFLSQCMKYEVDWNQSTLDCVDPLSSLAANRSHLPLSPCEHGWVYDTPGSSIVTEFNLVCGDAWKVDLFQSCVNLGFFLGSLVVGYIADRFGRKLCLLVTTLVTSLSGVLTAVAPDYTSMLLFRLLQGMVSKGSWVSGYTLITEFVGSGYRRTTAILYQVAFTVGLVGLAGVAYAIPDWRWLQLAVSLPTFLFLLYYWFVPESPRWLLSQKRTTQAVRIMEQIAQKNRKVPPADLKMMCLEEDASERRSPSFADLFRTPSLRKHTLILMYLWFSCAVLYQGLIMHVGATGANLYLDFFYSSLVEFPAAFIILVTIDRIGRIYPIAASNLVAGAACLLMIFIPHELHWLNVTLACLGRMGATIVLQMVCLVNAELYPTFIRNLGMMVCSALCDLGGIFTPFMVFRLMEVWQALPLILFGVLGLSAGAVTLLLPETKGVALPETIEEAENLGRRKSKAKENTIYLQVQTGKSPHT

YES1 / hOCT1 = assay: Chemical genetics: hOCT1 uptake assay in HEK293 cells transfected with wild-type YES1 or T348I gatekeeper mutant, then dasatinib; format: cell-based, human; settings: HEK293-hOCT1, dasatinib 1 µM 15 min, [14C] TEA uptake
Experimental: as §1, with “The” for “Uptake assays were performed with radiolabeled TEA (2 µM) or metformin (5 µM) as described previously ([Sprowl et al., 2013]; [Pabla et al., 2015]) in the presence or absence of TKIs. The”

human OCT1 (hOCT1) = target: T3, human OCT1 (hOCT1) (Homo sapiens, UniProt O15245); assay: Cellular uptake of [14C] TEA or [14C] metformin in HEK293 cells overexpressing hOCT1, with or without inhibitor; format: cell-based; settings: for OCT1 function (TEA transport) in presence of TKI: HEK293-hOCT1, TKI 10 µM, Figure 2D
T3 construct: expressed in transfected cells
T3 sequence (O15245 1-554): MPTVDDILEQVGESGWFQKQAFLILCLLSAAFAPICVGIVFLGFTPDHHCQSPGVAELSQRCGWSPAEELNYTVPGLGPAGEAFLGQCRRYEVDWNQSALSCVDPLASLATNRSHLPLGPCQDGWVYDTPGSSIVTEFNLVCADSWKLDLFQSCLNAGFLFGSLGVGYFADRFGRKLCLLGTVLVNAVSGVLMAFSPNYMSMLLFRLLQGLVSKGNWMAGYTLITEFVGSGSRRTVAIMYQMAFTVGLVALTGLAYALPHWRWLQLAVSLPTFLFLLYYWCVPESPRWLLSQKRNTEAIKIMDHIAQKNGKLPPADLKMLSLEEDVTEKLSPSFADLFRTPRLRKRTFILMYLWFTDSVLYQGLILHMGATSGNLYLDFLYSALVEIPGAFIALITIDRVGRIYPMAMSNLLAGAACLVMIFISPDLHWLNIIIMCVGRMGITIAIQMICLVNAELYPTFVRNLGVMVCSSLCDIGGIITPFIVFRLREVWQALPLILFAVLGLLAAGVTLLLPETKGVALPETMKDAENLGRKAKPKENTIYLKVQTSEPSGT
Experimental: (§2) Human embryonic kidney (HEK293) cells were obtained from the American Type Culture Collection (ATCC, Manassas, VA). HEK293 cells stably transfected with mouse OCT1 (mOCT1) or human OCT1 (hOCT1) were cultured in Dulbecco’s Modified Eagle Media (DMEM) media supplemented with 10% fetal bovine serum (FBS) and grown at 37°C in a humidified incubator containing 5% CO2. Radiolabeled [^14C] TEA and [^14C] metformin were obtained from American Radiochemicals (St. Louis, MO). Cellular uptake assays were performed 48 h following transient transfection by Lipofectamine 3000 Transfection Reagent (Thermo Fisher Scientific, Waltham, MA). ON-TARGETplus Human YES1 siRNA was obtained from Dharmacon (Lafayette, CO). RNA extraction kits were obtained from Omega Bio-tek (Norcross, GA).
as §1, with “The” for “Uptake assays were performed with radiolabeled TEA (2 µM) or metformin (5 µM) as described previously ([Sprowl et al., 2013]; [Pabla et al., 2015]) in the presence or absence of TKIs. The”

mouse OCT1 (mOCT1) = target: T4, mouse OCT1 (mOCT1) (Mus musculus, UniProt O08966); assay: Cellular uptake of [14C] TEA in HEK293 cells overexpressing mOCT1, with or without inhibitor; format: cell-based
T4 construct: expressed in transfected cells
T4 sequence (O08966 1-556): T2 sequence (O08966 1-556)
Experimental: as §2, §1

OCT1 (mouse and human) = assay: Dose-response OCT1 uptake inhibition, summarised across mOCT1 and hOCT1 models and test substrates; format: cell-based; settings: mouse and human, probe [14C] TEA (2 µM) or [14C] metformin (5 µM); range over mOCT1/hOCT1 models and test substrates
Experimental: as §2, §1

OCT1 [2] = assay: as above; format: cell-based, human and mouse; settings: for OCT1 inhibition: Yes/No; for OCT1 function in dose-response experiments: species-independent, regardless of test substrate
Experimental: as §2, §1

OCT1 [3] = system: OCT1; set-up: method as in Furmanski et al., 2013; settings: ref Furmanski et al., 2013; cited from earlier work
OCT2 (hOCT2) [4] = target: T5, OCT2 (hOCT2) (Homo sapiens, UniProt O15244); settings: cited from earlier work; for OCT2 inhibition: Yes/No, TKIs previously found to inhibit OCT2
T5 construct: expressed in transfected cells; host or cells: overexpressing cell model
T5 sequence (O15244 1-555): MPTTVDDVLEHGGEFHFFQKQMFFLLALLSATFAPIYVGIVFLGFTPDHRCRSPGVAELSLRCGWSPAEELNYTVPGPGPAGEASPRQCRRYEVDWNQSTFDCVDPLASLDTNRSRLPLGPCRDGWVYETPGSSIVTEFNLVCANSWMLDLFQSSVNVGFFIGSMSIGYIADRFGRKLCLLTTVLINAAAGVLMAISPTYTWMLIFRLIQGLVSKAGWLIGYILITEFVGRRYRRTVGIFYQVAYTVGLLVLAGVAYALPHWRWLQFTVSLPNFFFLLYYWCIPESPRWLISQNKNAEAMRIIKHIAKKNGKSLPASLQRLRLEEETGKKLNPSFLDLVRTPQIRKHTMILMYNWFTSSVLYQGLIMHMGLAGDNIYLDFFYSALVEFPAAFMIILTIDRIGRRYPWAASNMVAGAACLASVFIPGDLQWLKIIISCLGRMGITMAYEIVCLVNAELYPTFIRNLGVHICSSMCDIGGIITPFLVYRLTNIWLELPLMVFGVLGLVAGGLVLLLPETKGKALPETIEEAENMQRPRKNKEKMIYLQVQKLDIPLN

hepatic OCT1 [5] = target: T2, hepatic OCT1; settings: OCT1/2-deficient vs wild-type mice, [14C] TEA 0.2 mg/kg i.v.
OCT2 (hOCT2) [6] = target: T5, OCT2 (hOCT2); assay: OCT2 transport inhibition; format: cell-based; settings: models overexpressing hOCT2, Supplementary Figure S4D
Experimental: as §1

YES1 = settings: read-out: YES1 Kd; ref Klaeger et al., 2017; KINOMEscan data—HMS LINCS Project, 2020; cited from earlier work

Row | Structure (SMILES) | OCT3 function in presence of TKI (OCT3) | OCT1 function (TEA transport) in presence of TKI (human OCT1 (hOCT1)) | IC50 at 15 min (OCT1 (mouse and human)) [nM] | OCT1 inhibition (OCT1 [2]) | OCT1 function in dose-response experiments (OCT1 [2]) | OCT2 inhibition (OCT2 (hOCT2) [4]; ref Sprowl et al., 2016) | also measured
1 | Cc1nc(Nc2ncc(C(=O)Nc3c(C)cccc3Cl)s2)cc(N2CCN(CCO)CC2)n1 [Dasatinib, dasatinib] | potently inhibiting | inhibit OCT1 function | […] | Yes | potently inhibited | Yes | plasma levels of IBC after dasatinib, OCT1/2-deficient or OCT1/2/MATE1-deficient mice (hepatic OCT1 [1]): not; plasma levels of IBC after dasatinib, wild-type mice (hepatic OCT1 [1]; wild-type mice): transient, statistically significant increase; dasatinib-mediated OCT1 inhibition in cells with TKI-resistant YES1 (T348I gatekeeper) mutant (YES1 / hOCT1): rescue; dasatinib-mediated OCT1 inhibition in cells with YES1 wild-type construct (YES1 / hOCT1): retained sensitivity; IC50 (mouse OCT1 (mOCT1); HEK293-mOCT1, [14C] TEA 2 µM, 15 min pre-incubation + 15 min co-incubation, read-out: IC50, mOCT1-mediated transport of TEA): […]; Ki (mouse OCT1 (mOCT1); read-out: inhibition constant (Ki), Dixon plot, mOCT1): 870 nM; transported substrate of OCT1 (OCT1 [3]): not themselves transported substrate; OCT2 inhibition, co-incubation designs (OCT2 (hOCT2) [4]; ref Minematsu and Giacomini, 2011): only a weak inhibitor; OCT2 function, pre-incubation conditions (OCT2 (hOCT2) [4]; ref Sprowl et al., 2016): potently inhibits
2 | CC[N+](CC)(CC)CC [TEA, tetraethylammonium] | – | – | – | – | – | – | hepatic uptake of TEA (liver-to-plasma concentration ratio) in OCT1/2-deficient mice (hepatic OCT1 [5]): dramatically reduced
3 | CCc1nc(C(N)=O)c(Nc2ccc(N3CCC(N4CCN(C)CC4)CC3)c(OC)c2)nc1NC1CCOCC1 [Gilteritinib, gilteritinib] | no influence | inhibit OCT1 function | 10 to 20 | Yes | potently inhibited | Yes | –
4 | Cc1cc2cc(C(=O)c3cnn(-c4cnc(Oc5c(F)cccc5F)cc4C)c3N)[nH]c2cc1NS(C)(=O)=O [CH6953755] | – | – | – | – | – | – | IC50 (human OCT1 (hOCT1); HEK293-hOCT1, [14C] TEA 2 µM, 15 min pre-incubation + 15 min co-incubation, read-out: IC50, hOCT1-mediated transport of TEA): 2760 nM; IC50 (human OCT1 (hOCT1); HEK293-hOCT1, [14C] metformin 5 µM, read-out: IC50, hOCT1-mediated transport of metformin): 2310 nM; inhibition of hOCT2-mediated transport (OCT2 (hOCT2) [6]): also observed; inhibition of mOCT1-mediated transport (mouse OCT1 (mOCT1); models overexpressing mOCT1, Supplementary Figure S4C): also observed
5 | CCN(CC)CCNC(=O)c1c(C)[nH]c(/C=C2\C(=O)Nc3ccc(F)cc32)c1C [sunitinib] | potently inhibiting | inhibit OCT1 function | – | – | – | – | –
6 | CS(=O)(=O)CCNCc1ccc(-c2ccc3ncnc(Nc4ccc(OCc5cccc(F)c5)c(Cl)c4)c3c2)o1 [Lapatinib, lapatinib] | – | not | – | No | – | No | –
7 | COc1cc2c(Nc3ccc(Br)cc3F)ncnc2cc1OCC1CCN(C)CC1 [Vandetanib, vandetanib] | – | inhibit OCT1 function | 1350 to 9050 | Yes | potently inhibited | Yes | Kd (YES1): 120 nM
8 | C=CC(=O)N1CCC[C@@H](n2nc(-c3ccc(Oc4ccccc4)cc3)c3c(N)ncnc32)C1 [Ibrutinib, ibrutinib] | no influence | inhibit OCT1 function | 890 to 1180 | Yes | potently inhibited | Yes | –
9 | COc1cc(Nc2c(C#N)cnc3cc(OCCCN4CCN(C)CC4)c(OC)cc23)c(Cl)cc1Cl [bosutinib] | no influence | inhibit OCT1 function | – | – | – | – | –
